Measured values: ChEMBL document CHEMBL1201862, “PubChem BioAssay data set” (2004)
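Cultured in 96-well plates, cells were exposed to test compound for 48 hours across five concentrations. At the GI50, growth is halved.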 The source made the active and inactive calls. Rule as the data show it: active = GI50 up to about 1.1 µM and inactive = higher.

Key:
Experiment in all cases: NCI anticancer screen, dose series, 48 h
DLD-1 = tested on: DLD-1
DMS-114 = tested on: DMS-114
HOP-18 = tested on: HOP-18
KM-20L2 = tested on: KM-20L2
RXF 631 = tested on: RXF 631
SNB-78 = tested on: SNB-78
XF498 = tested on: XF498
DMS-273 = tested on: DMS-273
LXFL 529 = tested on: LXFL 529

Compound	GI50 (DLD-1)	GI50 (DMS-114)	GI50 (HOP-18)	GI50 (KM-20L2)	GI50 (RXF 631)	GI50 (SNB-78)	GI50 (XF498)	GI50 (DMS-273)	GI50 (LXFL 529)
Cc1c[nH]c2c1C13CC1CN(C(=O)c1cc4cc(NC(=O)c5cc6ccccc6o5)ccc4[nH]1)C3=CC2=O (stereo unspecified)	< 0.001 µM (active)	< 0.001 µM (active)	< 0.001 µM (active)	< 0.001 µM (active)	< 0.001 µM (active)	< 0.001 µM (active)	< 0.001 µM (active)	–	–
Oc1ccc2occ3c2c1CCC3	> 100 µM (inactive)	81.8 µM (inactive)	> 100 µM (inactive)	> 100 µM (inactive)	> 100 µM (inactive)	> 100 µM (inactive)	67 µM (inactive)	> 100 µM (inactive)	> 100 µM (inactive)
COc1ccc(/C(=C/n2ccnc2)C(=O)c2ccc(OC)c(OC)c2)cc1	> 100 µM (inactive)	> 100 µM (inactive)	–	> 100 µM (inactive)	–	–	> 100 µM (inactive)	> 100 µM (inactive)	> 100 µM (inactive)
C=CCN1/C(=C2\SC(=S)N(c3ccc(C)cc3)C2=O)Sc2c1ncn(C)c2=O	> 100 µM (inactive)	> 100 µM (inactive)	–	> 100 µM (inactive)	–	90.6 µM (inactive)	73.5 µM (inactive)	> 100 µM (inactive)	59.7 µM (inactive)
COC(=O)C(C(=O)C(=O)Nc1ccccc1C(C)=O)c1nc2ccc(Cl)cc2nc1O (stereo unspecified)	> 100 µM (inactive)	> 100 µM (inactive)	53.5 µM (inactive)	> 100 µM (inactive)	> 100 µM (inactive)	> 100 µM (inactive)	–	–	> 100 µM (inactive)
C/C(=N/N(C=O)C[n+]1ccccc1)C(CN(CC(C)C)CC(C)C)C(=O)Nc1ccc(C)cc1C (stereo unspecified)	> 100 µM (inactive)	70.8 µM (inactive)	–	> 100 µM (inactive)	> 100 µM (inactive)	–	–	–	–
Cc1c(Cl)cccc1NC(=O)C(=O)c1c(O)c2ccc(O)cc2oc1=O	> 100 µM (inactive)	> 100 µM (inactive)	> 100 µM (inactive)	> 100 µM (inactive)	–	> 100 µM (inactive)	> 100 µM (inactive)	> 100 µM (inactive)	> 100 µM (inactive)
O=C1C(c2ccccc2)=C(c2ccccc2)C(c2ccc(Sc3ccc(C4=C(c5ccccc5)C(=O)C(c5ccccc5)=C4c4ccccc4)cc3)cc2)=C1c1ccccc1	> 100 µM (inactive)	> 100 µM (inactive)	–	> 100 µM (inactive)	> 100 µM (inactive)	87.5 µM (inactive)	> 100 µM (inactive)	> 100 µM (inactive)	–
Oc1nc(-c2ccccc2)cc(-c2ccccc2O)n1	> 100 µM (inactive)	58.5 µM (inactive)	> 100 µM (inactive)	67.5 µM (inactive)	–	> 100 µM (inactive)	65 µM (inactive)	> 100 µM (inactive)	50.4 µM (inactive)
CCCN(CCCC(NC(C)=O)C(=O)NCc1ccccc1)C(=O)N(CCCl)N=O (stereo unspecified)	14.5 µM (inactive)	14.4 µM (inactive)	22.5 µM (inactive)	15.7 µM (inactive)	17.4 µM (inactive)	15.4 µM (inactive)	9.89 µM (inactive)	4.52 µM (inactive)	18 µM (inactive)
O=c1[nH]c2ccccc2cc1C(Cl)=C(Cl)Cl	> 100 µM (inactive)	> 100 µM (inactive)	> 100 µM (inactive)	> 100 µM (inactive)	–	> 100 µM (inactive)	> 100 µM (inactive)	> 100 µM (inactive)	> 100 µM (inactive)
CCCCCCN(CCCCCC)C(=S)N/N=C(\C)c1ccccn1	1.26 µM (inactive)	0.571 µM (active)	–	0.673 µM (active)	1.02 µM (active)	0.711 µM (active)	–	1.63 µM (inactive)	0.208 µM (active)
Cc1nc2ccccc2c(=O)n1/N=C(\N=N\c1cc(Cl)ccc1Cl)c1ccc(N(C)C)cc1	62.7 µM (inactive)	22.8 µM (inactive)	75.9 µM (inactive)	> 100 µM (inactive)	–	–	2.79 µM (inactive)	38.5 µM (inactive)	29.9 µM (inactive)
CCOC(=O)C1=C(Nc2ccc(Cl)c(Cl)c2)OC/C1=N\NS(=O)(=O)c1ccc(C)cc1	39.8 µM (inactive)	56.4 µM (inactive)	27.5 µM (inactive)	31.4 µM (inactive)	29.6 µM (inactive)	> 100 µM (inactive)	94 µM (inactive)	–	46.9 µM (inactive)
CC(=O)N(/N=C\c1ccc([N+](=O)[O-])cc1)c1ccccc1	> 100 µM (inactive)	99.8 µM (inactive)	> 100 µM (inactive)	> 100 µM (inactive)	> 100 µM (inactive)	> 100 µM (inactive)	> 100 µM (inactive)	> 100 µM (inactive)	–
CCOC(=O)Cc1nc(/C(C#N)=C/c2ccco2)[nH]c(=O)c1C#N	> 100 µM (inactive)	–	> 100 µM (inactive)	> 100 µM (inactive)	–	37.8 µM (inactive)	–	> 100 µM (inactive)	> 100 µM (inactive)
Clc1ccc2c(Cl)ncnc2c1I	> 100 µM (inactive)	54.3 µM (inactive)	–	> 100 µM (inactive)	–	–	91.6 µM (inactive)	> 100 µM (inactive)	34 µM (inactive)
Cc1ccc(C)c(NC(=O)C(=O)Nn2c(S)nc3ccccc3c2=O)c1	> 100 µM (inactive)	> 100 µM (inactive)	> 100 µM (inactive)	> 100 µM (inactive)	> 100 µM (inactive)	> 100 µM (inactive)	–	> 100 µM (inactive)	> 100 µM (inactive)
N/C(=N\O)N/N=C/c1ccc(O)c(O)c1	> 100 µM (inactive)	> 100 µM (inactive)	> 100 µM (inactive)	> 100 µM (inactive)	> 100 µM (inactive)	> 100 µM (inactive)	> 100 µM (inactive)	34.5 µM (inactive)	> 100 µM (inactive)
COc1ccc(C2=C(Cl)c3cc(OC)c(OC)cc3C2Cl)cc1 (stereo unspecified)	–	14.1 µM (inactive)	20.3 µM (inactive)	15.9 µM (inactive)	–	17.9 µM (inactive)	< 0.01 µM (active)	17.2 µM (inactive)	13.2 µM (inactive)
O=C1c2cccc([N+](=O)[O-])c2C(=O)c2nccnc21	2.84 µM (inactive)	0.982 µM (active)	1.69 µM (inactive)	2.7 µM (inactive)	–	3.09 µM (inactive)	–	3.5 µM (inactive)	–
COc1ccccc1/C=C(\NC(=O)c1ccccc1)c1nc2ccccc2[nH]1	37.3 µM (inactive)	29.4 µM (inactive)	46.3 µM (inactive)	59.8 µM (inactive)	> 100 µM (inactive)	53.3 µM (inactive)	36.1 µM (inactive)	–	29.9 µM (inactive)
CCCCCCCCCCCCCCCC/C(C(=O)OC)=C(/O)C(=O)OCC	> 100 µM (inactive)	> 100 µM (inactive)	> 100 µM (inactive)	> 100 µM (inactive)	–	> 100 µM (inactive)	–	> 100 µM (inactive)	> 100 µM (inactive)
O=C(O)c1ccc(C2C(=O)N[C@@H]3CCC[C@H]23)cc1 (stereo partly specified)	> 100 µM (inactive)	> 100 µM (inactive)	> 100 µM (inactive)	> 100 µM (inactive)	–	> 100 µM (inactive)	–	> 100 µM (inactive)	> 100 µM (inactive)
CC(CCC[C@H](C)CO)[C@H]1[C@@H](O)C(O)C2[C@@H]3C[C@@H](O)C4(O)C[C@@H](O)CC[C@]4(C)C3CC[C@@]21C (stereo partly specified)	> 100 µM (inactive)	84.7 µM (inactive)	> 100 µM (inactive)	> 100 µM (inactive)	–	> 100 µM (inactive)	> 100 µM (inactive)	> 100 µM (inactive)	> 100 µM (inactive)
CCN(CC)CCOc1ccc(CCc2cc(OC)c(OC)c(OC)c2)cc1	64.1 µM (inactive)	21.9 µM (inactive)	> 100 µM (inactive)	31.9 µM (inactive)	53.5 µM (inactive)	> 100 µM (inactive)	23.7 µM (inactive)	18.2 µM (inactive)	35.1 µM (inactive)
